The text below walks through data of ChEMBL document CHEMBL1921770, “Synthesis and structure-activity relationship (SAR) of (5,7-disubstituted 3-phenylsulfonyl-pyrazolo[1,5-a]pyrimidin-2-yl)-methylamines as potent serotonin 5-HT(6) receptor (5-HT(6)R) antagonists” (J Med Chem, 2011).

For data set [1], the target named is T1, 5-hydroxytryptamine receptor 6 (Homo sapiens, UniProt P50406). The data set can be described thus: Inhibition of human recombinant 5-HT6 receptor expressed in human HEK293 cells assessed as inhibition of serotonin-induced cAMP accumulation. Format: functional, cell-based. (Changes in cAMP serve as a functional read-out for many G protein-coupled receptors.)

In data set [2] the target is 5-hydroxytryptamine receptor 5A (Homo sapiens) (UniProt P47898). The data set can be described thus: Inhibition of serotonin 5-HT5A receptor at 1 uM by ligand displacement assay.
In data set [3] the target is T1, 5-hydroxytryptamine receptor 6. As to the kind of experiment: Antagonist activity at human recombinant 5-HT6 receptor expressed in human HEK293 cells assessed as inhibition of serotonin-induced cAMP accumulation. In kind it is functional, cell-based. Conditions: read-out: pA2 (converted).
Data set [4] concerns the target 5-hydroxytryptamine receptor 2B (Homo sapiens) (UniProt P41595). The data set can be described thus: Displacement of[3H]lysergic acid […] 5-HT2B receptor at 1 uM by ligand displacement assay.
Data set [5] deals with Adenosine receptor A3 (Homo sapiens) (UniProt P0DMS8). The data set can be described thus: Inhibition of adenosine A3 receptor at 1 uM by ligand displacement assay.
Data set [6] has as its target Adenosine receptor A1 (Homo sapiens) (UniProt P30542). The data set can be described thus: Inhibition of adenosine A1 receptor at 1 uM by ligand displacement assay.
Data set [7] is described as follows: Inhibition of dopamine D4.7 receptor at 1 uM by ligand displacement assay.
The target in data set [8] is Histamine H2 receptor (Homo sapiens) (UniProt P25021). The data set can be described thus: Inhibition of histamine H2 receptor at 1 uM by ligand displacement assay.
Data set [9] concerns the target Adenosine receptor A2a (Homo sapiens) (UniProt P29274). The data set can be described thus: Inhibition of adenosine A2A receptor at 1 uM by ligand displacement assay.
Data set [10] deals with D(2) dopamine receptor (Homo sapiens) (UniProt P14416). The data set can be described thus: Inhibition of dopamine D2S receptor at 1 uM by ligand displacement assay.
For data set [11], the target named is 5-hydroxytryptamine receptor 4 (Homo sapiens) (UniProt Q13639). As to the kind of experiment: Inhibition of serotonin 5-HT4 receptor at 1 uM by ligand displacement assay.
In data set [12] the target is Voltage-gated inwardly rectifying potassium channel KCNH2 (Homo sapiens, UniProt Q12809). As to the kind of experiment: Inhibition of human Erg at 1 uM by ligand displacement assay.
In data set [13] the target is 5-hydroxytryptamine receptor 2A (Homo sapiens) (UniProt P28223). As to the kind of experiment: Inhibition of serotonin 5-HT2A receptor at 1 uM by ligand displacement assay.
Data set [14] in a line: Inhibition of adrenergic beta receptor at 1 uM by ligand displacement assay.
Data set [15] concerns the target D(1A) dopamine receptor (Homo sapiens) (UniProt P21728). As to the kind of experiment: Inhibition of dopamine D1 receptor at 1 uM by ligand displacement assay.
Data set [16] has as its target Muscarinic acetylcholine receptor M3 (Homo sapiens) (UniProt P20309). As to the kind of experiment: Inhibition of muscarinic M3 receptor at 1 uM by ligand displacement assay.
Data set [17] addresses Alpha-2A adrenergic receptor (Homo sapiens) (UniProt P08913). As to the kind of experiment: Inhibition of adrenergic alpha2 receptor at 1 uM by ligand displacement assay.
Data set [18] addresses 5-hydroxytryptamine receptor 3A (Homo sapiens) (UniProt P46098). As to the kind of experiment: Inhibition of serotonin 5-HT3 receptor at 1 uM by ligand displacement assay.
Data set [19] deals with D(1B) dopamine receptor (Homo sapiens) (UniProt P21918). The data set can be described thus: Inhibition of dopamine D5 receptor at 1 uM by ligand displacement assay.
The target of data set [20] is Muscarinic acetylcholine receptor M1 (Homo sapiens) (UniProt P11229). As to the kind of experiment: Inhibition of muscarinic M1 receptor at 1 uM by ligand displacement assay.
Data set [21] deals with D(3) dopamine receptor (Homo sapiens) (UniProt P35462). The data set can be described thus: Inhibition of dopamine D3 receptor at 1 uM by ligand displacement assay.
Data set [22] addresses 5-hydroxytryptamine receptor 1A (Homo sapiens) (UniProt P08908). As to the kind of experiment: Inhibition of serotonin 5-HT1A receptor at 1 uM by ligand displacement assay.
The target of data set [23] is Adenosine receptor A2b (Homo sapiens) (UniProt P29275). The data set can be described thus: Inhibition of adenosine A2B receptor at 1 uM by ligand displacement assay.
Data set [24] deals with Histamine H3 receptor (Homo sapiens) (UniProt Q9Y5N1). The data set can be described thus: Inhibition of histamine H3 receptor at 1 uM by ligand displacement assay.
In data set [25] the target is T1, 5-hydroxytryptamine receptor 6. The data set can be described thus: Displacement of[3H]lysergic acid […] from 5-HT6 receptor at 1 uM by ligand displacement assay.
Data set [26] concerns the target 5-hydroxytryptamine receptor 7 (Homo sapiens) (UniProt P34969). As to the kind of experiment: Inhibition of serotonin 5-HT7 receptor at 1 uM by ligand displacement assay.
Data set [27] concerns the target D(4) dopamine receptor (Homo sapiens) (UniProt P21917). The data set can be described thus: Inhibition of dopamine D4.4 receptor at 1 uM by ligand displacement assay.
The target in data set [28] is 5-hydroxytryptamine receptor 1B (Homo sapiens) (UniProt P28222). The data set can be described thus: Inhibition of serotonin 5-HT1B receptor at 1 uM by ligand displacement assay.
Data set [29] in a line: Inhibition of adrenergic alpha1 receptor at 1 uM by ligand displacement assay.
The target of data set [30] is T2, 5-hydroxytryptamine receptor 2C (Homo sapiens) (UniProt P28335).
T2 sequence (whole entry): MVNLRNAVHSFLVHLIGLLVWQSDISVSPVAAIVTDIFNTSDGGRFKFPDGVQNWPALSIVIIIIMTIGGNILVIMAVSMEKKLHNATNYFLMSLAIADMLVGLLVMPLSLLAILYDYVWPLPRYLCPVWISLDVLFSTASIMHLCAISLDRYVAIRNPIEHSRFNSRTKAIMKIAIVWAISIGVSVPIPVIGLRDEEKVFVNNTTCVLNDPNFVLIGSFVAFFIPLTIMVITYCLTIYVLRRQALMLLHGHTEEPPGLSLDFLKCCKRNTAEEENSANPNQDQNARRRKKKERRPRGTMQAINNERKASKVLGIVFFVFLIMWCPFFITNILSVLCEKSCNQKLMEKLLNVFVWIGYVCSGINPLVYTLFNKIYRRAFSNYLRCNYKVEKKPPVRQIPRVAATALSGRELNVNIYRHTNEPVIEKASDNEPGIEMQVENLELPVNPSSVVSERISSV
The data set can be described thus: Inhibition of serotonin 5-HT2C receptor at 1 uM by ligand displacement assay.

In data set [31] the target is Muscarinic acetylcholine receptor M2 (Homo sapiens) (UniProt P08172). As to the kind of experiment: Inhibition of muscarinic M2 receptor at 1 uM by ligand displacement assay.
The nature of data set [32]: Inhibition of dopamine D4.2 receptor at 1 uM by ligand displacement assay.
In data set [33] the target is Muscarinic acetylcholine receptor M4 (Homo sapiens) (UniProt P08173). The data set can be described thus: Inhibition of muscarinic M4 receptor at 1 uM by ligand displacement assay.
In data set [34] the target is Histamine H1 receptor (Homo sapiens) (UniProt P35367). As to the kind of experiment: Inhibition of histamine H1 receptor at 1 uM by ligand displacement assay.
The target in data set [35] is T1, 5-hydroxytryptamine receptor 6. As to the kind of experiment: Partial agonist activity at human recombinant 5-HT6 receptor expressed in human HEK293 cells assessed as inhibition of serotonin-induced cAMP accumulation. Format: functional, cell-based.

Molecules are shown by their SMILES. Activity calls are given as the source filed them. No cut-off for these calls is given here.

T1 sequence (P50406 whole entry): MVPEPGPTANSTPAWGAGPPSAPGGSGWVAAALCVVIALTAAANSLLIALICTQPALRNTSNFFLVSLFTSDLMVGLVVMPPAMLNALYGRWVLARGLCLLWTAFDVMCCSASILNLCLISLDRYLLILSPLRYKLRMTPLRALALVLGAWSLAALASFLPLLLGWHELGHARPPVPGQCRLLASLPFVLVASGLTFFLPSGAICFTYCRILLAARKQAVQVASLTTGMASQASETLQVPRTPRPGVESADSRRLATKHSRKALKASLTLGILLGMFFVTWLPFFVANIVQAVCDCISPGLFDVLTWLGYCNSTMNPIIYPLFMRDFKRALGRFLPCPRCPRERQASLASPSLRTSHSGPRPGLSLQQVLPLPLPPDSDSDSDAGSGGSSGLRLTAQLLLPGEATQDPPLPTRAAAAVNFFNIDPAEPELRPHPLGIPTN
Sequence of Muscarinic acetylcholine receptor M1 (Homo sapiens) (P11229 whole entry): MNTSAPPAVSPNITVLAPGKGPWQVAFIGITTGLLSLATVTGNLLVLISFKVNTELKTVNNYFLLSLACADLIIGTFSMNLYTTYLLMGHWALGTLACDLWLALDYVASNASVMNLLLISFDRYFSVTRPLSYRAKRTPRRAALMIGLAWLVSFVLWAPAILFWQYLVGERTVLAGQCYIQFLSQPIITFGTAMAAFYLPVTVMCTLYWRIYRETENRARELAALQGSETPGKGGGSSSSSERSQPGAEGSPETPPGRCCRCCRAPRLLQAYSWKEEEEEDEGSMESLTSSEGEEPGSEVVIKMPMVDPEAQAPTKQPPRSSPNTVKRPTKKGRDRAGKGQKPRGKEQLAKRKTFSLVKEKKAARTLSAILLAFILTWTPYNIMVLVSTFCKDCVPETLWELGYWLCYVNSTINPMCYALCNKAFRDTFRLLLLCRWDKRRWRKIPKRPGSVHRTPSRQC
Sequence of Adenosine receptor A2a (Homo sapiens) (P29274 whole entry): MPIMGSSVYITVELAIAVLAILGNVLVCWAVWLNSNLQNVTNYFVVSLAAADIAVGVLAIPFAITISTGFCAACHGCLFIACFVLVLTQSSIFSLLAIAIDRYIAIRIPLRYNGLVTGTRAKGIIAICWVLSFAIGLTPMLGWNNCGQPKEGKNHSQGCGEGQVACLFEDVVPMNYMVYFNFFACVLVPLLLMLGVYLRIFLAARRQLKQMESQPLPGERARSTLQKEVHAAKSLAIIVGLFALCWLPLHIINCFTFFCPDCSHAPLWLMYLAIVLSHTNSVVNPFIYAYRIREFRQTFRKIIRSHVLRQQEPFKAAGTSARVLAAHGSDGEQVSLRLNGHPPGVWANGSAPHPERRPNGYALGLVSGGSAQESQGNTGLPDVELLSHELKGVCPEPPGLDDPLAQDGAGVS
Sequence of 5-hydroxytryptamine receptor 2B (Homo sapiens) (P41595 whole entry): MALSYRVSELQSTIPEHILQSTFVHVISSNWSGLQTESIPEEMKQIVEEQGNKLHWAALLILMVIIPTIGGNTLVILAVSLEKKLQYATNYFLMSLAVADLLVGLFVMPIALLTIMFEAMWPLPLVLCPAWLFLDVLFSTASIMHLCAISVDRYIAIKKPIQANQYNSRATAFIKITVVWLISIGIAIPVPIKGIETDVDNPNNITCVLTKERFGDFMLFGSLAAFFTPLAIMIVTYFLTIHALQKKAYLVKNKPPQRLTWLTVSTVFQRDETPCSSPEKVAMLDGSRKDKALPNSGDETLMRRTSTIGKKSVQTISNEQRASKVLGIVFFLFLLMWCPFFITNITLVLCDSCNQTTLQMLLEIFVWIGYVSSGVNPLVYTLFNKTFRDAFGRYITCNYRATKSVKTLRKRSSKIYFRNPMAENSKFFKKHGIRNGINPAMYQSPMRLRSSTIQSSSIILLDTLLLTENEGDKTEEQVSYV
Sequence of 5-hydroxytryptamine receptor 1B (Homo sapiens) (P28222 whole entry): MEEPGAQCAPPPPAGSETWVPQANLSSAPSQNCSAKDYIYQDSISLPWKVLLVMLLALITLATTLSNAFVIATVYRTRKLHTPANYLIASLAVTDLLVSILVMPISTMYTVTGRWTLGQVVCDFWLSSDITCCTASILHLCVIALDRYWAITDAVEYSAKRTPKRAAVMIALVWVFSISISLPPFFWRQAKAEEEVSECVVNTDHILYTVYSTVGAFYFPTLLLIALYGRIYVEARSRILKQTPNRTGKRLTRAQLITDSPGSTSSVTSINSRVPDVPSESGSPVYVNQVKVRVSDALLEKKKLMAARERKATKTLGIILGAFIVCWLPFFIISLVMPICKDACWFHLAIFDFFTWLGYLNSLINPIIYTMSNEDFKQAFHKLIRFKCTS
Sequence of Voltage-gated inwardly rectifying potassium channel KCNH2 (Q12809 whole entry): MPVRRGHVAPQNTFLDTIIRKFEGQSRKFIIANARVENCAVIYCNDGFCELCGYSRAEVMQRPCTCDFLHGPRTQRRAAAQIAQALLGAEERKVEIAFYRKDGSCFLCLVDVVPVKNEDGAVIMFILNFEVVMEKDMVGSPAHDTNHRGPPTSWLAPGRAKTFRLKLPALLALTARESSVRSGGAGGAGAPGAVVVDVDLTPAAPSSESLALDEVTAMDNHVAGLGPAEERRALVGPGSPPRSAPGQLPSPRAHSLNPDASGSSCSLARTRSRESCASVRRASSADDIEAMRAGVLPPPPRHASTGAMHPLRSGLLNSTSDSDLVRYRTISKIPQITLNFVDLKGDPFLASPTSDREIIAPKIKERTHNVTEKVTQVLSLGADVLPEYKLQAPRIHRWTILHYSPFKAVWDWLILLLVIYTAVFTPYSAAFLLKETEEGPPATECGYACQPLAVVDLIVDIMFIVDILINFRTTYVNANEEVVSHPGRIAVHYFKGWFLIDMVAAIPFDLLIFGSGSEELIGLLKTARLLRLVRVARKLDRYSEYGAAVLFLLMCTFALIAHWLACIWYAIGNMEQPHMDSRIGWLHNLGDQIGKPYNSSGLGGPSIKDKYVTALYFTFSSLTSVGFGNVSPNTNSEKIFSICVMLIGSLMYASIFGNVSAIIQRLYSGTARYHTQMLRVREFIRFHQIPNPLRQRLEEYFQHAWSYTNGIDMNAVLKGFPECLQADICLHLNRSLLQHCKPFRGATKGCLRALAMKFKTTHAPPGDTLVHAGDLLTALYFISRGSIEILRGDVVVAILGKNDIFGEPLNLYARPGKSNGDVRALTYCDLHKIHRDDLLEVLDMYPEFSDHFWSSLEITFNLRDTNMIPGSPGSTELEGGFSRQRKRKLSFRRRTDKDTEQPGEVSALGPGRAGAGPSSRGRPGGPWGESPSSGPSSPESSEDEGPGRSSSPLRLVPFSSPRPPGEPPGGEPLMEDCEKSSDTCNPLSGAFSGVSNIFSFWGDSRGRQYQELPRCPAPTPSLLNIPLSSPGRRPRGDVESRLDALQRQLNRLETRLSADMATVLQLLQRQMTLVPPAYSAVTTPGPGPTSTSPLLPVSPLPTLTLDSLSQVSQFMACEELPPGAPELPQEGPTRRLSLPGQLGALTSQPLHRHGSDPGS
Sequence of 5-hydroxytryptamine receptor 1A (Homo sapiens) (P08908 whole entry): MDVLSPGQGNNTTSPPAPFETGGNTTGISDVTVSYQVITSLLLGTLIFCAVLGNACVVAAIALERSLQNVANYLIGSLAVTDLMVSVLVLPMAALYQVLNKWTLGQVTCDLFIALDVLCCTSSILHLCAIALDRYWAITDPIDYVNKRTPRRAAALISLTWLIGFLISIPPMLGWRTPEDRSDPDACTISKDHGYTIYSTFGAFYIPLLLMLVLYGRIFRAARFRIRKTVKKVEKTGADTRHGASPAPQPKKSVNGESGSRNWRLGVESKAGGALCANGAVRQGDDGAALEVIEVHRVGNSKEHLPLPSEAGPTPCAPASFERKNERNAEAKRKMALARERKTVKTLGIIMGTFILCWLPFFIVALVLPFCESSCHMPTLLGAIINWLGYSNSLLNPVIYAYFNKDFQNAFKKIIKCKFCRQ
Sequence of Histamine H1 receptor (Homo sapiens) (P35367 whole entry): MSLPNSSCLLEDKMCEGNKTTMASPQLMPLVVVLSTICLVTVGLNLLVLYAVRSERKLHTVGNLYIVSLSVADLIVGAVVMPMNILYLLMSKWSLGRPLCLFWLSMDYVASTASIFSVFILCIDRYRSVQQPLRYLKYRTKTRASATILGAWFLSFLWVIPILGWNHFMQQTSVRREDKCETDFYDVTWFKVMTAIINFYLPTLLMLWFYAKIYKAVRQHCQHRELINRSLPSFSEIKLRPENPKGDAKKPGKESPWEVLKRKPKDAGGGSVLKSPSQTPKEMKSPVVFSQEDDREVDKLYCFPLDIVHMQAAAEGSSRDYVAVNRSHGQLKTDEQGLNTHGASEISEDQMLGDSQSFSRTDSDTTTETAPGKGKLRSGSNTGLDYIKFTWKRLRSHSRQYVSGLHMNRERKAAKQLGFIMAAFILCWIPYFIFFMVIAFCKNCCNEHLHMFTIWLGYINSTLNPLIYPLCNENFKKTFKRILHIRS
Sequence of Adenosine receptor A2b (Homo sapiens) (P29275 whole entry): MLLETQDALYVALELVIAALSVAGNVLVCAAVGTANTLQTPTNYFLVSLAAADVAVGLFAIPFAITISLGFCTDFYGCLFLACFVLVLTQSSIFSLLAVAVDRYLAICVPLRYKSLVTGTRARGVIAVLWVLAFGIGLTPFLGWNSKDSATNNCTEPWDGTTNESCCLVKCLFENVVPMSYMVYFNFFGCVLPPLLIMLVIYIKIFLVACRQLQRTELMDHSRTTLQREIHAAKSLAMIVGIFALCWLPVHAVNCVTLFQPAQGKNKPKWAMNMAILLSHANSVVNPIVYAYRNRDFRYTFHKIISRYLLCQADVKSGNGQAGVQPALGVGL
Sequence of D(3) dopamine receptor (Homo sapiens) (P35462 whole entry): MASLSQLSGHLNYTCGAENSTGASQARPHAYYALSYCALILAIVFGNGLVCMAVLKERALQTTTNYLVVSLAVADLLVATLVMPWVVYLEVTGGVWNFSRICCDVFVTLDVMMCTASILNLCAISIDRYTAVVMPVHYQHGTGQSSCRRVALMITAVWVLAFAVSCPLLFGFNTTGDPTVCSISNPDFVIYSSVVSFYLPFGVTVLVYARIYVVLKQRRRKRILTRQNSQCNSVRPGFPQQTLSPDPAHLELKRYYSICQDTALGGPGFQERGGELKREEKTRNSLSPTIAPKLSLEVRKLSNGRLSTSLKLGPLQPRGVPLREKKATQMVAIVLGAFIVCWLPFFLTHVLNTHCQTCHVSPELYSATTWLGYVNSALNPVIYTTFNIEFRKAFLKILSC

Consider `CNc1nn2c(C)c(CN(C)C)c(C)nc2c1S(=O)(=O)c1ccccc1`, for which the Ki in data set [1] (read-out: pKi (converted)) was 0.708 nM.
On the same count and under the same terms, under `CNc1nn2c(NCCN(C)C)cc(C)nc2c1S(=O)(=O)c1ccccc1` stands 69.2 nM.
For `CNc1nn2c(N)cc(C)nc2c1S(=O)(=O)c1ccccc1`, the inhibition entry in data set [2], in data set [4], in data set [5], in data set [6], in [7] and in [8] was “inactive” in each case. Moreover, the inhibition result in data set [9], in data set [10], in data set [11], in data set [13], in [14] and in data set [15] was “inactive” in each case. For the same compound, the inhibition result in data set [16], in [17], in data set [18], in data set [19], in [20] and in data set [21] was “inactive” throughout. For the same compound, the inhibition result in data set [22], in data set [23], in data set [24], in data set [26], in [27] and in data set [28] was “inactive” each time. Moreover, the inhibition entry in data set [29], in data set [31], in [32], in data set [33] and in data set [34] was “inactive” throughout. In addition, the Kb in data set [3] was 0.501 nM. The “inhibition (INH)” value in data set [12] is “Not Active”. The inhibition (commonly the drop in the measured response relative to a control, in per cent) amounted to 100% in data set [25] and 50% in data set [30]. For the same compound, the Ki in [1] (read-out: pKi (converted)) is 0.302 nM.
Turning to `CNc1nn2c(C)c(CCN(C)C)c(C)nc2c1S(=O)(=O)c1ccccc1`, the Ki in data set [1] (read-out: pKi (converted)) was 2.09 nM.
`CSc1nn2c(N3CCNCC3)c3c(nc2c1S(=O)(=O)c1ccccc1)CCC3`: in data set [1] (read-out: Ki), the Ki came out at 0.85 nM.
`CNc1nn2c(C)c(CN(C)C)c(C)nc2c1S(=O)(=O)c1cccc(Cl)c1`: the Ki in data set [1] (read-out: pKi (converted)) is 0.417 nM.
Consider `CNc1nn2c(CCN(C)C)cc(C)nc2c1S(=O)(=O)c1ccccc1`, for which, in [35], the Ki is 33.9 nM.
As to `CNc1nn2c(C)c(N)c(C)nc2c1S(=O)(=O)c1ccccc1`, the Kb in data set [3] was 0.398 nM. The inhibition result in data set [30] was “inactive”. For the same compound, the Ki in data set [1] (read-out: pKi (converted)) is 0.525 nM.
As to `CNc1nn2c(C)c(CN)c(C)nc2c1S(=O)(=O)c1ccccc1`, the Ki in [1] (read-out: pKi (converted)) was 0.646 nM.
For the compound `CNc1nn2c(CN)cc(C)nc2c1S(=O)(=O)c1ccccc1`, the Ki in [1] (read-out: pKi (converted)) is 1.86 nM.
Same read-out and setting: under `CNc1nn2c(NC)cc(C)nc2c1S(=O)(=O)c1ccccc1` stands 0.575 nM.
For `CNc1nn2c(N)c(Cl)c(C)nc2c1S(=O)(=O)c1cccc(Cl)c1`, the Ki in [1] (read-out: pKi (converted)) was 18.6 nM.
On to `CNc1nn2c(N(C)C)cc(C)nc2c1S(=O)(=O)c1ccccc1`, for which, in data set [1] (read-out: pKi (converted)), the Ki is 0.347 nM.
Take `CNc1nn2c(C)c(N(C)C)c(C)nc2c1S(=O)(=O)c1ccccc1`: in data set [30], the inhibition result is “inactive”. The Ki in data set [1] (read-out: pKi (converted)) was 0.209 nM.
Consider `CNc1nn2c(C)cc(CN)nc2c1S(=O)(=O)c1ccccc1`, for which the inhibition entry in [30] was “inactive”. Besides, the Ki in data set [1] (read-out: pKi (converted)) is 0.977 nM.
For the compound `CNc1nn2c(N)c(Cl)c(C)nc2c1S(=O)(=O)c1ccccc1`, in data set [1] (read-out: Ki), the Ki worked out at 0.14 nM.
As to `CNc1nn2c(NCCCN(C)C)cc(C)nc2c1S(=O)(=O)c1ccccc1`, the Ki in data set [1] (read-out: Ki) turned out to be 112 nM.
Take `CNc1nn2c(N)cc(C)nc2c1S(=O)(=O)c1cccc(Cl)c1`: the Ki in [1] (read-out: pKi (converted)) is 0.219 nM.
Take `CNc1nn2c(C)c(CN)c(C)nc2c1S(=O)(=O)c1cccc(Cl)c1`: the Ki in data set [1] (read-out: pKi (converted)) is 0.55 nM.
Regarding `CNc1nn2c(C)c(CN(C)C)c(C)nc2c1S(=O)(=O)c1cccc(F)c1`, the Ki in data set [1] (read-out: pKi (converted)) is 0.891 nM.
For the compound `CNc1nn2c(CN(C)C)cc(C)nc2c1S(=O)(=O)c1ccccc1`, the Ki in data set [1] (read-out: pKi (converted)) is 1.82 nM.
Turning to `CNc1nn2c(N(C)CCN(C)C)cc(C)nc2c1S(=O)(=O)c1ccccc1`, in data set [1] (read-out: pKi (converted)), the Ki is 22.4 nM.
For `CNc1nn2c(N3CCOCC3)cc(C)nc2c1S(=O)(=O)c1ccccc1`, in [1] (read-out: pKi (converted)), the Ki was 16.6 nM.
Still for that read-out and setting: then `CNc1nn2c(C)c(NC(C)=O)c(C)nc2c1S(=O)(=O)c1ccccc1`, with 4.68 nM; and `CNc1nn2c(C)cc(C)nc2c1S(=O)(=O)c1ccccc1`, with 0.263 nM.
Turning to `CNc1nn2c(CCN)cc(C)nc2c1S(=O)(=O)c1ccccc1`, the Kb in data set [3] was 3.98 nM. The Ki in [35] is 3.09 nM.
